# Tested on: hairless mice
# Assay: Evaluation of wrinkle-reducing effect using photoaging model (UVB-irradiated hairless mice, replica wrinkle score)
# Format: in vivo
# Details: 0.5% by mass in ethanol (lotion), 100 μL once a day for 8 weeks on dorsal portions after 10 weeks of UVB irradiation; replicas scored visually 1 to 6; vs ethanol control
# Procedure: A wrinkle-reducing effect of Cosmetic 1 above was evaluated in a test using a photoaging model.
# A total of ten hairless mice, which were six-week-old at the time of the start of a test, were used and divided into two groups each consisting of five mice, i.e., a control group (ethanol solvent administration group) and a sample administration group. The dorsal portions of the hairless mice were irradiated with UVB at a frequency of once a day and three times a week for 10 consecutive weeks to induce photoaging. The UVB irradiation amount was set to 50 mJ/cm^2 for the first week and to 100 mJ/cm^2 on week 2 or later.
# In the sample administration group, Cosmetic 1 above was administered to the dorsal portions of the hairless mice. Cosmetic 1 started to be administered to the dorsal portions of the hairless mice on the following day after the completion of the UVB irradiation for 10 weeks, and administered at a dose of 100 μL once a day for 8 weeks. In the control group, the same treatments were performed as those in sample administration group except that ethanol was administered in place of Cosmetic 1 (Lotion 1) in Table 1. […] The scoring operation was performed by three measurers separately and evaluated visually with scores of 1 to 6 at intervals of 0.5. An average value of the results was calculated.
structure (smiles),measurement,value
"CSCC(NC(=O)c1ccc(C)cc1)C(=O)O (stereo not shown) [Compound 2, [S-methyl-N-toluyl]cysteine]",wrinkle-reducing effect (wrinkle score),excellent wrinkle-reducing effects

# — patent publication US8835498B2, “Anti-wrinkle agents” (Pola Chemical Industries Inc., priority 2008, dated 2014)
